Results on eight compounds are retold here after patent US7943340B2, “Fungal dipeptidyl peptidase IV (DPPIV) enzyme for reagent use” (priority 2003, dated 2011).

Structures are written as SMILES. Where two headings read alike, the source gives them in different places. Where a SMILES comes first, the peptide text is derived from it. [ ]: non-standard residue; d: D form. The star is where a group is joined. Sta = CC(C)C[C@H](N)[C@@H](O)CC(=O)O; Isovaleryl = CC(C)CC(=O)*

Test [1] addresses ruLAP2 (Trichophyton rubrum, UniProt Q5QHG6). The test is classed as biochemical. As to conditions: for effect of inhibitor on ruLAP2 activity: Leu-AMC 5 mM, inhibitor concentrations. As to the method: (§1) Inhibitors and metallic cations were pre-incubated with the enzymes for 15 min at 37° C. Then, Leu-AMC at a 5 mM final concentration was added. After further incubation for 60 min, enzyme activity was measured as described above. The inhibitors and their concentrations tested purified LAPs were: 500 μM amastatin (Bachem), 40 μM benzamidine (Sigma), 500 μM bestatin (Bachem), 5 mM/l mM EDTA (Sigma). 100 μM E-64 (L-trans-epoxysuccinyl-leu-4-guanidinobutylamide) (Bachem), 100 μM leupeptin (Sigma), 5 mM/1 mM ortho-phenanthroline (Sigma), 500 μM p-chloromercuribenzoic acid (Sigma), 100 μM pepstatin A (Sigma), 40 μM PMSF (Sigma), 20 μM TLCK (Roche Diagnostics), and 20 μM TPCK (Roche Diagnostics).

In test [2] the target is T1, pkLAP (microsomal LAP from porcine kidney) (Sus scrofa, UniProt P15145).
T1 construct: purchased Sigma; host or cells: porcine kidney
T1 sequence (P15145 1-963): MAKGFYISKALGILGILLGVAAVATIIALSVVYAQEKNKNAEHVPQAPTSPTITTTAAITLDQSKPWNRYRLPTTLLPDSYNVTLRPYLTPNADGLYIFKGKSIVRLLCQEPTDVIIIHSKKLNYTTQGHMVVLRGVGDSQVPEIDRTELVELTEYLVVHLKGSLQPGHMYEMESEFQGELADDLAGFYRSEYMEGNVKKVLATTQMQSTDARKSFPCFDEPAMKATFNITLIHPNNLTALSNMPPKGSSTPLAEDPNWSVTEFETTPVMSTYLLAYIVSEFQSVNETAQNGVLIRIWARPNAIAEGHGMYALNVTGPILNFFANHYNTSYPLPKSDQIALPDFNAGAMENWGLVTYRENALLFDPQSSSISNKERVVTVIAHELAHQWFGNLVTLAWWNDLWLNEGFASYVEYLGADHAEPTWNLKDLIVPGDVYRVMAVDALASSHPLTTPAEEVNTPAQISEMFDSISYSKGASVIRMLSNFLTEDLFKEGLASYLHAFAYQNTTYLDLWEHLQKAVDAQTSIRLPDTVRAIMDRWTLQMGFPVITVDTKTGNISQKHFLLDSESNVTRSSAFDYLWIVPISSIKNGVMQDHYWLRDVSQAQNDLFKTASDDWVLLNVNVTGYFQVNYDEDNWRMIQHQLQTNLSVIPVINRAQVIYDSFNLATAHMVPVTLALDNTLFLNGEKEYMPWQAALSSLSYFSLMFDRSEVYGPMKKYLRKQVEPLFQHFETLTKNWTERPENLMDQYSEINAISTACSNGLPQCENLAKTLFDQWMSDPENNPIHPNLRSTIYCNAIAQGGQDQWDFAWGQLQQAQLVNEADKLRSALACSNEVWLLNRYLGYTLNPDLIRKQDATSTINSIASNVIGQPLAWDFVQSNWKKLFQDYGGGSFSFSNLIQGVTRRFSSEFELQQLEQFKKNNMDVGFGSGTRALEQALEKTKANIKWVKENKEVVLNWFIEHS
Kind of test: Effect of chemical reagents (inhibitors, metallic cations) on LAP activity with Leu-AMC. The test is classed as biochemical. The method, then: as §1

In test [3] the target is ruLAP1 (Trichophyton rubrum, UniProt Q5QHG5). It counts as biochemical. As to conditions: for effect of inhibitor on ruLAP1 activity: Leu-AMC 5 mM, inhibitor concentrations, pepstatin 0.1 mM. The method, then:
as §1

Test [4] has as its target fuLAP1 (Aspergillus fumigatus, UniProt Q5VJG6). The test is classed as biochemical. As to the method: as §1
Test [5] concerns fuLAP2. The test is classed as biochemical, Aspergillus fumigatus. As to conditions: for fuLAP2 hydrolytic activity, percentage of control without any cation / fuLAP2 hydrolytic activity, percentage of control without inhibitor: Leu-MCA substrate; for fuLAP2 hydrolytic activity, percentage of control without inhibitor: inhibitor 100 μM. As to the method: as §1
The mark [6] stands for this setting: cation salt 0.5 mM, Leu-MCA substrate.
Where [7] appears, read: cation salt 1 mM, Leu-MCA substrate.
[8] abbreviates: inhibitor 100 μM, Leu-MCA substrate.

Sequence of fuLAP1 (Q5VJG6 15-388, looked up, natural form): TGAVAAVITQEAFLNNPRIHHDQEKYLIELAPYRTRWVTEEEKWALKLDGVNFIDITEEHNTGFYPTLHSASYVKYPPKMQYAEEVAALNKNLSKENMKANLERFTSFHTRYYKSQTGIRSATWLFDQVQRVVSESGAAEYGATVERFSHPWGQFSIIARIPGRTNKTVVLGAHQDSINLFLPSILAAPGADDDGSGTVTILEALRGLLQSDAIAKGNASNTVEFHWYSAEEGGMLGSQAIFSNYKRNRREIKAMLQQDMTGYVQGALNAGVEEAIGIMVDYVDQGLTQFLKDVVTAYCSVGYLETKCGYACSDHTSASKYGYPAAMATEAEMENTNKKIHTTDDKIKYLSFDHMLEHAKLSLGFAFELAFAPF
Sequence of ruLAP1 (Q5QHG5 19-373): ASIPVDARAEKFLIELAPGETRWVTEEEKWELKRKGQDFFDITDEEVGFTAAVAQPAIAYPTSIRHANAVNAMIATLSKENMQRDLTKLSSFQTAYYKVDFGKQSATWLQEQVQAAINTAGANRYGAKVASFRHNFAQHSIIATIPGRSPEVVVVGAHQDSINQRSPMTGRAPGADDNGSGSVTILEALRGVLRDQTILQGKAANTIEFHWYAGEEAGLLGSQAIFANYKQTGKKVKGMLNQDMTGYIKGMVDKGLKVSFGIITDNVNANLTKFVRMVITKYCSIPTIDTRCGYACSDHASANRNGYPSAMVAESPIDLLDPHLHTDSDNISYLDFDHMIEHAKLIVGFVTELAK
Sequence of ruLAP2 (Q5QHG6 22-495): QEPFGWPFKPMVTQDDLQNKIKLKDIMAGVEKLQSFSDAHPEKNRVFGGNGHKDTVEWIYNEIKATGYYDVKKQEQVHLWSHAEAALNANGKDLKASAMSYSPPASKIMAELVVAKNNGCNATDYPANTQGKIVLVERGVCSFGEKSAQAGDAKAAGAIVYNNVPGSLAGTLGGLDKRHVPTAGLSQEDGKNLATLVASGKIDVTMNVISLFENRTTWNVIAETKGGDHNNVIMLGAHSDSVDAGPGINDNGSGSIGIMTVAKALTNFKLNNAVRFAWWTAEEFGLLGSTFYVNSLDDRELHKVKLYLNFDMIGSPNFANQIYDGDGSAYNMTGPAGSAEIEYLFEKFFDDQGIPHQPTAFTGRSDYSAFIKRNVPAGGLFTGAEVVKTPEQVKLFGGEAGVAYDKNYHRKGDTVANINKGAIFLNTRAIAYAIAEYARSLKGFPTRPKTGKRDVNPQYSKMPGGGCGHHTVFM

Consider `CC(C)C[C@H](NC(=O)[C@H]1O[C@@H]1C(=O)O)C(=O)NCCCCN=C(N)N` (relative stereo) [E64, L-trans-epoxysuccinyl-leu-4-guanidinobutylamide], for which, in test [1], the “effect of inhibitor on ruLAP2 activity” value was “blunted the activity”.

As for `[Ca+2].[Cl-].[Cl-]` [CaCl2], the “pkLAP hydrolytic activity, percentage of control without any cation” value came out at 177.4% in test [2] (setting [6]) and 161.8% in test [2] (setting [7]). The results for the “ruLAP1 hydrolytic activity, percentage of control without any cation” value in test [3] (setting [6]) and in test [3] (setting [7]) were 151.7% and 175.6%, respectively. Also, the “fuLAP1 hydrolytic activity, percentage of control without any cation” value in test [4] (setting [6]) was found to be 54.9%; in test [4] (setting [7]), 43.3%. Moreover, the entries for the “ruLAP2 hydrolytic activity, percentage of control without any cation” value in test [1] (setting [6]) and in test [1] (setting [7]) were 126.6% and 141.9%, respectively. Also, the “fuLAP2 hydrolytic activity, percentage of control without any cation” value in test [5] (cation salt 0.5 mM) is 110.0%; in test [5] (cation salt 1 mM) it was 165.4%.

As to `[Ca+2]` [Ca^++], the “effect of divalent cation on fuLAP1 activity” value in test [4] (Leu-AMC substrate) was “inhibited”. For the same compound, in test [5] (Leu-AMC substrate), the “effect of divalent cation on fuLAP2 activity” value is “activated”.

Consider `[Cl][Cu][Cl]` [Cu^++, CuCl2], for which, in test [2] (Leu-AMC substrate), the “effect of divalent cation on pkLAP activity” value is reported as “highly activated”. For the same compound, the “pkLAP hydrolytic activity, percentage of control without any cation” value was 1422.0% in test [2] (setting [6]) and 1092.4% in test [2] (setting [7]). The “fuLAP1 hydrolytic activity, percentage of control without any cation” value is given as 25.8% in test [4] (setting [6]) and 17.0% in test [4] (setting [7]). For the same compound, the “ruLAP2 hydrolytic activity, percentage of control without any cation” value in test [1] (setting [6]) is reported as 50.9%; in test [1] (setting [7]) it was 34.7%. Besides, the “fuLAP2 hydrolytic activity, percentage of control without any cation” value in test [5] (cation salt 0.5 mM) is given as 68.9%; in test [5] (cation salt 1 mM), 73.6%.

Regarding `CC(C)C[C@H](NC(=O)[C@H]1O[C@@H]1C(=O)O)C(=O)NCCCCN=C(N)N` [E 64], the “pkLAP hydrolytic activity, percentage of control without inhibitor” value in test [2] (setting [8]) is listed as 93%. For the same compound, the “ruLAP1 hydrolytic activity, percentage of control without inhibitor” value in test [3] (setting [8]) was 103%. Further, in test [4] (setting [8]), the “fuLAP1 hydrolytic activity, percentage of control without inhibitor” value turned out to be 190%. Besides, the “ruLAP2 hydrolytic activity, percentage of control without inhibitor” value in test [1] (setting [8]) came to 34%. Further, the “fuLAP2 hydrolytic activity, percentage of control without inhibitor” value in test [5] stood at 71%.

On to `O=C(O)CN(CCN(CC(=O)O)CC(=O)O)CC(=O)O` [EDTA], for which, in test [3], the “effect of inhibitor on ruLAP1 activity” value was “more sensitive”. The “effect of inhibitor on ruLAP2 activity” value in test [1] is “more sensitive”.

As to `[Cl-].[Cl-].[Mg+2]` [MgCl2], the “pkLAP hydrolytic activity, percentage of control without any cation” value is 130.1% in test [2] (setting [6]) and 146.1% in test [2] (setting [7]). Moreover, the “ruLAP1 hydrolytic activity, percentage of control without any cation” value in test [3] (setting [6]) stood at 129.9%; in test [3] (setting [7]), 132.6%. For the same compound, the “fuLAP1 hydrolytic activity, percentage of control without any cation” value is 68.5% in test [4] (setting [6]) and 72.6% in test [4] (setting [7]). Besides, the “ruLAP2 hydrolytic activity, percentage of control without any cation” value in test [1] (setting [6]) came to 121.2%; in test [1] (setting [7]), 110.2%. Also, the “fuLAP2 hydrolytic activity, percentage of control without any cation” value was determined as 97.6% in test [5] (cation salt 0.5 mM) and 108.0% in test [5] (cation salt 1 mM).

With `CC(C)CC(=O)N[C@H](C(=O)N[C@H](C(=O)N[C@@H](CC(C)C)[C@@H](O)CC(=O)N[C@@H](C)C(=O)N[C@@H](CC(C)C)[C@@H](O)CC(=O)O)C(C)C)C(C)C` [pepstatin, pepstatin A] (Isovaleryl-VV[Sta]A[Sta]-OH), the “effect of inhibitor on ruLAP1 activity” value in test [3] is “some sensitivity”. In test [4] (Leu-AMC 5 mM, inhibitor concentrations, pepstatin 0.1 mM), the “effect of inhibitor on fuLAP1 activity” value was “some sensitivity”. For the same compound, the “fuLAP2 hydrolytic activity, percentage of control without inhibitor” value in test [5] was 73%.
